One series relates to HCT 116. Nature of the series: MTT cell proliferation assay. The class given is cell-based. As to conditions: Homo sapiens, HCT-116, 48 h, HCT 116 colon cancer, 48 h of drug treatment. The procedure:
(§1) The cell lines used in study were initially procured from the National Centre for Cell Sciences (NCCS), Pune, India, and maintained in DMEM. The cell line was cultured in 25 cm^2 tissue culture flask with DMEM supplemented with 10% FBS, sodium bicarbonate, L-glutamine, and antibiotic solution containing: streptomycin (100 μg/ml), penicillin (100 U/ml). Cultured cell line was kept at 37 °C in a humidified 5% CO2 incubator (VWR, USA).
(§2) The compounds found to have good antimicrobial potential were then screened for their cytotoxicity using MTT […]) assay. 1 × 10^4 cells/well were seeded in 100 µl DMEM/MEM, supplemented with 10% FBS in each well of 96-well microculture plates and incubated for 24 h at 37 °C in a CO2 incubator. After incubation, all the prepared/synthesized compounds were added to the cells at 10, 25, 50 and 100 µg concentrations for 48 h. After 48 h of drug treatment, 10 µl MTT (5 mg/ml) was added to each well and the plates were further incubated for 4 h. Then the supernatant from each well was carefully removed, formazan crystals were dissolved in 100 µl of DMSO and absorbance at 570 nm wavelength was recorded on an ELISA reader. The IC50 value was calculated using the linear regression equation i.e. Y = Mx + C. Here, Y = 50, M and C values were derived from the viability graph. The assay was performed in triplicate.
(Formazan colour is commonly taken as a measure of viable cells.)

The next series has as its system K562. Nature of the series: MTT cell proliferation assay. The class given is cell-based. Particulars: Homo sapiens, K562 leukemia, 48 h of drug treatment. The procedure:
as §1, §2

The next series deals with MDA MB 231. Nature of the series: MTT cell proliferation assay. The class given is cell-based. Particulars: MDA MB 231 breast cancer, 48 h of drug treatment. The procedure:
as §1, §2

Series [1] has as its system E. coli. Nature of the series: MIC by tube dilution method. The class given is cell-based. As to conditions: 24 h at 37 °C.
Series [2] has as its system S. aureus. Nature of the series: MIC by tube dilution method. The class given is cell-based. Particulars: Staphylococcus aureus, 24 h at 37 °C, read-out: MIC.
The subject of series [3] is S. enterica. Nature of the series: MIC by tube dilution method. The class given is cell-based. Particulars: Salmonella enterica, 24 h, 24 h at 37 °C, read-out: MIC.
Series [4] concerns B. subtilis. Briefly: MIC by tube dilution method. The class given is cell-based. Particulars: Bacillus subtilis, 24 h at 37 °C, read-out: MIC.
Series [5] deals with K. pneumonia. Nature of the series: MIC by tube dilution method. The class given is cell-based. Particulars: 24 h at 37 °C.
The subject of series [6] is A. niger. Nature of the series: MIC by tube dilution method. The class given is cell-based. As to conditions: Aspergillus niger, 168 h, 7 days at 25 °C, read-out: MIC.
Series [7] has as its system A. fumigatus. Nature of the series: MIC by tube dilution method. Particulars: Aspergillus fumigatus, 168 h, 7 days at 25 °C, read-out: MIC. The class given is cell-based.
Series [8] has as its system E. coli. Nature of the series: Minimum bactericidal concentration (MBC). The class given is cell-based. As to conditions: Escherichia coli.
The subject of series [9] is S. aureus. Nature of the series: Minimum bactericidal concentration (MBC). The class given is cell-based. As to conditions: Staphylococcus aureus.
Series [10] deals with S. enterica. Nature of the series: Minimum bactericidal concentration (MBC). The class given is cell-based. Particulars: Salmonella enterica, read-out: MBC/MFC. The procedure:
After MIC assessment, the indole derivatives (DS1–DS21), were additionally evaluated for MBC and MFC values. […] The 10–15 ml of nutrient agar and Sabouraud dextrose agar was added to the petri plates for bacterial and fungal samples respectively with gentle shaking of plates in order to mix the culture throughout the media. Allowed the media to solidify. The petri plates were then incubated for the predefined time and temperature as referenced already for bacterial and fungal cultures respectively. The plates were then investigated visually for the development of microbial growth. The MBC and MFC were stated as the minimum concentration of the compounds in aliquots showing no visual growth after incubation.

The subject of series [11] is B. subtilis. Briefly: Minimum bactericidal concentration (MBC). The class given is cell-based. Particulars: Bacillus subtilis.
In series [12] the test system is K. pneumonia. Briefly: Minimum bactericidal concentration (MBC). The class given is cell-based. As to conditions: Klebsiella pneumoniae.
Series [13] relates to A. niger. Nature of the series: Minimum fungicidal concentration (MFC). The class given is cell-based. As to conditions: Aspergillus niger, read-out: MBC/MFC.
Series [14] relates to A. fumigatus. Nature of the series: Minimum fungicidal concentration (MFC). As to conditions: Aspergillus fumigatus, read-out: MBC/MFC. The class given is cell-based.
In a further series the test system is HEK-293. Nature of the series: MTT cell proliferation assay, normal cells. As to conditions: Homo sapiens, HEK293, HEK-293 normal cells, 48 h of drug treatment. The class given is cell-based. The procedure:
as §1, §2

The mark [15] stands for this setting: Homo sapiens, MDA-MB-231, 48 h, read-out: IC50.
Setting [16] is: Escherichia coli, 24 h, read-out: MIC.
The mark [17] stands for this setting: Klebsiella pneumoniae, 24 h, read-out: MIC.

In brackets after ≈: the same amount, converted by molar mass. Like-named read-outs stand apart in the source and are kept apart here.

We go through 4 compounds from publication PMC6661771, “Indole hybridized diazenyl derivatives: synthesis, antimicrobial activity, cytotoxicity evaluation and docking studies” (BMC Chemistry, 2019).

As usually defined, the IC50 is the concentration needed to halve the response being measured. On to `COc1cccc2c1C(=O)c1c(O)c3c(c(O)c1C2=O)C[C@@](O)(C(=O)CO)C[C@@H]3O[C@H]1C[C@H](N)[C@H](O)[C@H](C)O1` [DOX, doxorubicin, reference compound], for which the concentration for half-maximal inhibition (IC50) with HCT 116 was found to be 3.37 ± 0.37 µg/mL (≈ 6.2 µM); in the series on K562 it was 2.62 ± 0.65 µg/mL (≈ 4.82 µM); in the series with MDA MB 231 (setting [15]), 3 µg/mL (≈ 5.52 µM); with MDA MB 231 it was 3.08 ± 0.95 µg/mL (≈ 5.67 µM).

In general, MIC refers to the lowest concentration that inhibits growth of the organism. A word on the melting point: it is the temperature of the solid-liquid transition. Compound `CCOC(=O)c1c(/N=C(/C)c2ccc(/N=N\c3c[nH]c4ccccc34)cc2)sc2c1CCCC2` [DS-2, Ethyl 2-((Z)-(1-(4-((Z)-(1H-indol-3-yl)diazenyl)phenyl)ethylidene)amino)-4,5,6,7-tetrahydrobenzo[b]thiophene-3-carboxylate] showed a melting point of 260 to 265 °C. Also, the minimum inhibitory concentration (MIC) in the series with E. coli [1] (setting [16]) is 15.6 µg/mL (≈ 33.2 µM). The MIC with S. aureus [2] was determined as 62.5 µg/mL (≈ 133 µM). Moreover, the minimum inhibitory concentration (MIC) in the series on S. enterica [3] was 15.6 µg/mL (≈ 33.2 µM). In addition, the minimal inhibitory concentration (MIC) in the series on B. subtilis [4] is 31.2 µg/mL (≈ 66.4 µM). In addition, in the series with K. pneumonia [5] (setting [17]), the MIC came to 31.2 µg/mL (≈ 66.4 µM). In the series on A. niger [6], the minimal inhibitory concentration (MIC) turned out to be 62.5 µg/mL (≈ 133 µM). In addition, the MIC in the series on A. fumigatus [7] is 15.6 µg/mL (≈ 33.2 µM). Moreover, the MBC in the series on E. coli [8] turned out to be 16.2 µg/mL (≈ 34.5 µM). The compound also had an MBC against S. aureus [9] of 125 µg/mL (≈ 266 µM). Further, the MBC with S. enterica [10] worked out at 15.6 µg/mL (≈ 33.2 µM). Further, the MBC against B. subtilis [11] came to 125 µg/mL (≈ 266 µM). In addition, in the series on K. pneumonia [12], the MBC was 62.5 µg/mL (≈ 133 µM). In the series with A. niger [13], the MFC came out at 125 µg/mL (≈ 266 µM). The MFC in the series with A. fumigatus [14] was 62.5 µg/mL (≈ 133 µM). In the series on HCT 116, the midpoint of inhibition, the IC50, lay at 117 ± 4.28 µg/mL (≈ 248 µM). Moreover, in the series on K562, the IC50 came out at 140 ± 4.4 µg/mL (≈ 298 µM). For the same compound, the IC50 in the series with MDA MB 231 (setting [15]) stood at 57.6 ± 3.68 µg/mL (≈ 122 µM).

In the case of `C/C(=N/c1c(C)n(C)n(-c2ccccc2)c1=O)c1ccc(/N=N\c2c[nH]c3ccc([N+](=O)[O-])cc23)cc1` [DS-6, 1,5-Dimethyl-4-((Z)-(1-(4-((Z)-(5-nitro-1H-indol-3-yl)diazenyl)phenyl)ethylidene)amino)-2-phenyl-1H-pyrazol-3(2H)-one], the melting point fell in the range of 170 to 175 °C. The MIC in the series with E. coli [1] (setting [16]) came out at 1.95 µg/mL (≈ 3.95 µM). For the same compound, in the series on S. aureus [2], the minimal inhibitory concentration (MIC) is 31.2 µg/mL (≈ 63.3 µM). Further, the MIC with S. enterica [3] was found to be 31.2 µg/mL (≈ 63.3 µM). For the same compound, the MIC with B. subtilis [4] stood at 31.2 µg/mL (≈ 63.3 µM). Further, the minimal inhibitory concentration (MIC) with K. pneumonia [5] (setting [17]) turned out to be 7.81 µg/mL (≈ 15.8 µM). For the same compound, the minimum inhibitory concentration (MIC) in the series on A. niger [6] amounted to 62.5 µg/mL (≈ 127 µM). Further, in the series on A. fumigatus [7], the MIC amounted to 31.2 µg/mL (≈ 63.3 µM). For the same compound, the MBC in the series with E. coli [8] lay in the range of 3.9 to 7.81 µg/mL (≈ 7.9 to 15.8 µM). This compound also displayed an MBC in the series on S. aureus [9] of 31.2 µg/mL (≈ 63.3 µM). In the series on S. enterica [10] (S. enterica, MBC), the MBC was determined as 31.2 µg/mL (≈ 63.3 µM). For the same compound, the MBC against B. subtilis [11] was determined as 62.5 µg/mL (≈ 127 µM). The MFC with A. niger [13] was determined as 125 µg/mL (≈ 253 µM). For the same compound, the MFC with A. fumigatus [14] came out at 125 µg/mL (≈ 253 µM). Besides, in the series on HCT 116, the 50% inhibitory concentration (IC50) came to 139 ± 4.29 µg/mL (≈ 282 µM). The IC50 in the series on K562 was found to be 188 ± 1.94 µg/mL (≈ 380 µM). The IC50 with MDA MB 231 (setting [15]) came to 119 ± 1.92 µg/mL (≈ 241 µM). The compound further showed an IC50 in the series with HEK-293 of 257.8 ± 0.57 µg/mL (≈ 522 µM).

Compound `C/C(=N/c1ccc(C(=O)O)cc1)c1ccc(/N=N\c2c[nH]c3ccccc23)cc1` [DS-14, 4-((Z)-(1-(4-((Z)-(1H-Indol-3-yl)diazenyl)phenyl)ethylidene)amino)benzoic acid] had a melting point of 205 to 210 °C. In addition, the minimal inhibitory concentration (MIC) with E. coli [1] worked out at 3.90 µg/mL (≈ 10.2 µM). Further, in the series with E. coli [1] (setting [16]), the MIC is 1.95 to 3.9 µg/mL (≈ 5.1 to 10.2 µM). In addition, the MIC in the series on S. aureus [2] came to 62.5 µg/mL (≈ 163 µM). The minimal inhibitory concentration (MIC) in the series on S. enterica [3] is 1.95 to 3.9 µg/mL (≈ 5.1 to 10.2 µM). In the series with B. subtilis [4], the minimum inhibitory concentration (MIC) turned out to be 31.2 µg/mL (≈ 81.7 µM). For the same compound, the minimal inhibitory concentration (MIC) in the series with K. pneumonia [5] amounted to 1.95 µg/mL (≈ 5.1 µM). The minimum inhibitory concentration (MIC) in the series on K. pneumonia [5] (setting [17]) lay within 1.95 to 3.9 µg/mL (≈ 5.1 to 10.2 µM). Also, the minimum inhibitory concentration (MIC) with A. niger [6] is 62.5 µg/mL (≈ 163 µM). Also, the MIC in the series with A. fumigatus [7] was 31.2 µg/mL (≈ 81.7 µM). This compound had an MBC with S. aureus [9] of 62.5 µg/mL (≈ 163 µM). Moreover, the MBC in the series with S. enterica [10] (S. enterica, MBC) worked out at 7.81 µg/mL (≈ 20.4 µM). This compound showed an MBC in the series with B. subtilis [11] of 62.5 µg/mL (≈ 163 µM). The MBC against K. pneumonia [12] was in the range of 3.9 to 7.81 µg/mL (≈ 10.2 to 20.4 µM). The MFC in the series on A. niger [13] worked out at 125 µg/mL (≈ 327 µM). The MFC in the series with A. fumigatus [14] stood at 125 µg/mL (≈ 327 µM). The same compound registered an IC50 in the series on K562 of 112 ± 3.64 µg/mL (≈ 294 µM). Besides, the 50% inhibitory concentration (IC50) in the series with MDA MB 231 (setting [15]) fell in the range of 19 to 65 µg/mL (≈ 49.7 to 170 µM). Further, in the series with MDA MB 231, the IC50 worked out at 19.10 ± 1.43 µg/mL (≈ 49.9 µM). Moreover, the IC50 in the series with HEK-293 was 244 ± 3.78 µg/mL (≈ 638 µM).
